In one series the target is T1, hAPJ (Homo sapiens, UniProt P35414).
T1 sequence (P35414 1-380): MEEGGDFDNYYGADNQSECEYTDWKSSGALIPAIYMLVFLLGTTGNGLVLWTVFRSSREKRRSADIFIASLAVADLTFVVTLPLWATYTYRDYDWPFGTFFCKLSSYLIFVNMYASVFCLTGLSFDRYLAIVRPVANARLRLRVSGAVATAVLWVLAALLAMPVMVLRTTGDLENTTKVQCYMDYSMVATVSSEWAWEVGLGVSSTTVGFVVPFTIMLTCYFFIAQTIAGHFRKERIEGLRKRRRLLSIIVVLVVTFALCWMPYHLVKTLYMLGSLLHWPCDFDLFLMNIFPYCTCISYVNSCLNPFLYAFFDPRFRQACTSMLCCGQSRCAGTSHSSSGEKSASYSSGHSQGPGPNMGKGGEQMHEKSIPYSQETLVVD
The experiment in a line: hAPJ Calcium Flux Assay. As to conditions: Chem-5 APJ stable cells, FLIPR calcium flux stimulation; read-out: hAPJ Ca^2+ Flux EC50. Type of series: cell-based. The method, then: Chem-5 APJ stable cells (Millipore # HTS068C) were plated in 384-well format with 10,000 cells/well in 25 ul growth media, then grown 24 hours in a 37° C. tissue culture incubator. One hour before the assay, 25 ul/well FLIPR Calcium 4 dye (Molecular Devices R8142) with 2.5 mM probenecid was added, and cells were incubated one hour in a 37° C. tissue culture incubator. Peptides were solubilized in HBSS, HEPES & 0.1% BSA buffer, and serially-diluted 10-fold, from 50 uM to […], in triplicate. FLIPR Tetra was used to add peptide to the cells with dye (1:5, for final peptide concentrations ranging from 10 uM to […]). FLIPR dye inside the cells emitted fluorescence after binding to calcium, while fluorescence from outside the cells was masked. Fluorescence was measured using 470-495 excitation and 515-575 emission wavelengths on the FLIPR Tetra. Readings were done for 3 minutes total, beginning 10 seconds before the peptide addition. Maximum-minimum values were calculated and plotted for each peptide concentration, and GraphPad prism software was used to calculate EC50 values at the curve inflection points, for calcium flux stimulation by peptides.
Background: Calcium assays in cells follow changes in intracellular calcium, usually with a dye or a luminescent sensor.

The nature of series [1]: Surrogate Activity-Based Plasma Stability Assay. It counts as in vitro ADME. As to conditions: rat, Surrogate activity-based Plasma stability t½. The protocol:
Stability half-life was then calculated by the formula, t½=0.693÷k Surrogate Activity-Based Plasma Stability Assay: […]
2) Calculate slope of value above and […]

Where a SMILES comes first, the peptide text is derived from it. [ ]: non-standard residue; d: D form. The star is where a group is joined. Phe(3,4-Cl2) = N[C@@H](Cc1ccc(Cl)c(Cl)c1)C(=O)O; pGlu = O=C1CC[C@@H](C(=O)O)N1; dNle = CCCC[C@@H](N)C(=O)O; dNva = CCC[C@@H](N)C(=O)O; Nle = CCCC[C@H](N)C(=O)O; Aib = CC(C)(N)C(=O)O; tBu = CC(C)(C)*

Broadly, the EC50 is the midpoint of the concentration-response curve. The term half-life denotes the time needed for the level to fall by half in the phase considered. A low value points to fast loss.

For the compound `CCCC[C@@H](NC(=O)[C@@H]1CCCN1C(=O)CNC(=O)[C@H](CCCCN)NC(=O)[C@H](Cc1c[nH]cn1)NC(=O)[C@@H](C)NC(=O)[C@H](CC(C)C)NC(=O)[C@H](CCCNC(=N)N)NC(=O)[C@@H]1CCCN1C(=O)[C@H](CCCNC(=N)N)NC(=O)[C@@H]1CCC(=O)N1)C(=O)N[C@H](CCC)C(=O)N[C@H](Cc1ccccc1)C(=O)O` [Example 54, pE-R-P-R-L-a-H-K-G-P-nle-nva-f-OH] ([pGlu]RPRL[dA]HKGP[dNle][dNva][dF]-OH), the EC50 on hAPJ was 0.9 nM. This compound also had a half-life in series [1] of 15 h.

Turning to `CCCC[C@@H](NC(=O)[C@@H]1CCCN1C(=O)CNC(=O)[C@H](CCCCN)NC(=O)[C@H](Cc1c[nH]cn1)NC(=O)[C@@H](C)NC(=O)[C@H](Cc1ccc(O)cc1)NC(=O)[C@H](CCCNC(=N)N)NC(=O)[C@@H]1CCCN1C(=O)[C@H](CCCNC(=N)N)NC(=O)[C@@H]1CCC(=O)N1)C(=O)N[C@H](C)C(=O)N[C@H](Cc1ccccc1)C(=O)O` [Example 28, pE-R-P-R-Y-a-H-K-G-P-nle-a-f-OH] ([pGlu]RPRY[dA]HKGP[dNle][dA][dF]-OH), the concentration giving a half-maximal response (EC50) at hAPJ worked out at 114 nM. The same compound registered a half-life in series [1] of over 16.7 h.

As to `CCCC[C@@H](NC(=O)[C@@H]1CCCN1C(=O)CNC(=O)[C@H](CCCCN)NC(=O)[C@H](Cc1c[nH]cn1)NC(=O)[C@@H](C)NC(=O)[C@H](Cc1ccc(Cl)c(Cl)c1)NC(=O)[C@H](CCCNC(=N)N)NC(=O)[C@@H]1CCCN1C(=O)[C@H](CCCNC(=N)N)NC(=O)[C@@H]1CCC(=O)N1)C(=O)N[C@H](C)C(=O)N[C@H](Cc1ccccc1)C(=O)O` [Example 24, pE-R-P-R-(3,4-Cl2-F)-a-H-K-G-P-nle-a-f-OH] ([pGlu]RPR[Phe(3,4-Cl2)][dA]HKGP[dNle][dA][dF]-OH), the concentration for a half-maximal effect (EC50) on hAPJ was 13.8 nM. Also, the half-life in series [1] was 0.958 h.

As for `CCCC[C@@H](NC(=O)[C@@H]1CCCN1C(=O)CNC(=O)[C@H](CCC(N)=O)NC(=O)[C@H](Cc1c[nH]cn1)NC(=O)[C@@H](C)NC(=O)[C@H](CC(C)C)NC(=O)[C@H](CCCNC(=N)N)NC(=O)[C@@H]1CCCN1C(=O)[C@H](CCCNC(=N)N)NC(=O)[C@@H]1CCC(=O)N1)C(=O)N[C@H](C)C(=O)N[C@H](Cc1ccccc1)C(=O)O` [Example 59, pE-R-P-R-L-a-H-Q-G-P-nle-a-f-OH] ([pGlu]RPRL[dA]HQGP[dNle][dA][dF]-OH), at hAPJ, the 50% effective concentration (EC50) was 7.4 nM. The compound further showed a half-life in series [1] of 14.2 h.

Consider `CCC[C@@H](NC(=O)[C@@H]1CCCN1C(=O)CNC(=O)[C@H](CCCCN)NC(=O)[C@H](Cc1c[nH]cn1)NC(=O)[C@@H](C)NC(=O)[C@H](CC(C)C)NC(=O)[C@H](CCCNC(=N)N)NC(=O)[C@@H]1CCCN1C(=O)[C@H](CCCNC(=N)N)NC(=O)[C@@H]1CCC(=O)N1)C(=O)N[C@H](C)C(=O)N[C@H](Cc1ccccc1)C(=O)O` [Example 53, pE-R-P-R-L-a-H-K-G-P-nva-a-f-OH] ([pGlu]RPRL[dA]HKGP[dNva][dA][dF]-OH), for which the EC50 on hAPJ turned out to be 8.7 nM. This compound also came in with a half-life in series [1] of over 16.7 h.

For `CCCC[C@@H](NC(=O)[C@@H]1CCCCN1C(=O)CNC(=O)[C@H](CCCCN)NC(=O)[C@H](Cc1c[nH]cn1)NC(=O)[C@@H](C)NC(=O)[C@H](CC(C)C)NC(=O)[C@H](CCCNC(=N)N)NC(=O)[C@@H]1CCCN1C(=O)[C@H](CCCNC(=N)N)NC(=O)[C@@H]1CCC(=O)N1)C(=O)N[C@H](C)C(=O)N[C@H](Cc1ccccc1)C(=O)O` [Example 1, pE-R-P-R-L-a-H-K-G-Pip-nle-a-f-OH], the EC50 at hAPJ stood at 2.3 nM. In series [1], this compound registered a half-life of over 16.7 h.

As for `CCCC[C@@H](NC(=O)[C@@H]1CCCN1C(=O)CNC(=O)[C@H](CCCCN)NC(=O)[C@H](Cc1c[nH]cn1)NC(=O)[C@@H](C)NC(=O)[C@H](CC(C)C)NC(=O)[C@H](CCCNC(=N)N)NC(=O)[C@@H]1CCCN1C(=O)[C@H](CCCNC(=N)N)NC(=O)[C@@H]1CCC(=O)N1)C(=O)N[C@H](C)C(=O)NCCc1ccccc1` [Example 36, pE-R-P-R-L-a-H-K-G-P-nle-a-NH(Phenethyl)], the EC50 on hAPJ came to 16.2 nM. The compound also came in with a half-life in series [1] of 2.02 h.

As for `CCCC[C@@H](NC(=O)[C@@H]1CCCN1C(=O)CNC(=O)[C@H](CCCCN)NC(=O)[C@H](Cc1c[nH]cn1)NC(=O)[C@@H](CCC)NC(=O)[C@H](CC(C)C)NC(=O)[C@H](CCCNC(=N)N)NC(=O)[C@@H]1CCCN1C(=O)[C@H](CCCNC(=N)N)NC(=O)[C@@H]1CCC(=O)N1)C(=O)N[C@H](C)C(=O)N[C@H](Cc1ccccc1)C(=O)O` [Example 52, pE-R-P-R-L-nva-H-K-G-P-nle-a-f-OH] ([pGlu]RPRL[dNva]HKGP[dNle][dA][dF]-OH), the EC50 at hAPJ amounted to 19.5 nM. Further, in series [1], the half-life was over 16.7 h.

On to `CCCC[C@@H](NC(=O)[C@@H]1CCCN1C(=O)CNC(=O)[C@H](CCCCN)NC(=O)[C@H](Cc1c[nH]cn1)NC(=O)[C@@H](C)NC(=O)[C@H](CC(C)C)NC(=O)[C@H](CCCNC(=N)N)NC(=O)[C@@H]1CCCN1C(=O)[C@H](CCCNC(=N)N)NC(=O)[C@@H]1CCC(=O)N1)C(=O)N[C@H](CCCNC(=N)N)C(=O)N[C@H](Cc1ccccc1)C(=O)O` [Example 20, pE-R-P-R-L-a-H-K-G-P-nle-r-f-OH] ([pGlu]RPRL[dA]HKGP[dNle][dR][dF]-OH), for which, on hAPJ, the EC50 came out at 922 nM. In series [1], this compound had a half-life of over 16.7 h.

Consider `CCCC[C@@H](NC(=O)[C@@H]1CCCN1C(=O)CNC(=O)[C@H](CCCCN)NC(=O)[C@H](Cc1c[nH]cn1)NC(=O)[C@@H](CSC(C)(C)C)NC(=O)[C@H](CC(C)C)NC(=O)[C@H](CCCNC(=N)N)NC(=O)[C@@H]1CCCN1C(=O)[C@H](CCCNC(=N)N)NC(=O)[C@@H]1CCC(=O)N1)C(=O)N[C@H](C)C(=O)N[C@H](Cc1ccccc1)C(=O)O` [Example 7, pE-R-P-R-L-c(tBu)-H-K-G-P-nle-a-f-OH] ([pGlu]RPRL[dC](tBu)HKGP[dNle][dA][dF]-OH), for which the 50% effective concentration (EC50) on hAPJ stood at 693 nM. This compound also gave a half-life in series [1] of over 16.7 h.

Regarding `CCCC[C@@H](NC(=O)[C@@H]1CCCN1C(=O)CNC(=O)[C@H](CCCCN)NC(=O)[C@@H](C)NC(=O)[C@H](CO)NC(=O)[C@@H](CC(C)C)NC(=O)[C@H](CCCNC(=N)N)NC(=O)[C@@H]1CCCN1C(=O)[C@H](CCCNC(=N)N)NC(=O)[C@@H]1CCC(=O)N1)C(=O)N[C@H](C)C(=O)N[C@H](Cc1ccccc1)C(=O)O` [Example 2, pE-R-P-R-(D-Leu)-S-a-K-G-P-nle-a-f-OH] ([pGlu]RPR[dL]S[dA]KGP[dNle][dA][dF]-OH), the EC50 at hAPJ was found to be 386 nM. In addition, in series [1], the half-life was over 16.7 h.

In the case of `CCCC[C@@H](NC(=O)[C@@H]1CCCN1C(=O)CNC(=O)[C@H](CCCCN)NC(=O)[C@H](Cc1c[nH]cn1)NC(=O)[C@H](NC(=O)[C@H](CC(C)C)NC(=O)[C@H](CCCNC(=N)N)NC(=O)[C@@H]1CCCN1C(=O)[C@H](CCCNC(=N)N)NC(=O)[C@@H]1CCC(=O)N1)C(C)C)C(=O)N[C@H](C)C(=O)N[C@H](Cc1ccccc1)C(=O)O` [Example 61, pE-R-P-R-L-v-H-K-G-P-nle-a-f-OH] ([pGlu]RPRL[dV]HKGP[dNle][dA][dF]-OH), the half-maximal effective concentration (EC50) at hAPJ came to 7.9 nM. In series [1], the half-life was over 16.7 h.

In the case of `CCCC[C@H](NC(=O)[C@@H]1CCCN1C(=O)CNC(=O)[C@H](CCCCN)NC(=O)C(C)(C)NC(=O)[C@H](CO)NC(=O)[C@H](CC(C)C)NC(=O)[C@H](CCCNC(=N)N)NC(=O)[C@@H]1CCCN1C(=O)[C@H](CCCNC(=N)N)NC(=O)[C@@H]1CCC(=O)N1)C(=O)N[C@H](C)C(=O)N[C@H](Cc1ccccc1)C(=O)O` [Example 38, pE-R-P-R-L-S-Aib-K-G-P-Nle-a-f-OH] ([pGlu]RPRLS[Aib]KGP[Nle][dA][dF]-OH), the EC50 on hAPJ stood at 3.3 nM. Further, the half-life in series [1] was over 16.7 h.

Consider `CCCC[C@@H](NC(=O)[C@@H]1CCCN1C(=O)CNC(=O)[C@@H](CCCCN)NC(=O)C(C)(C)NC(=O)[C@H](CO)NC(=O)[C@H](CC(C)C)NC(=O)[C@H](CCCNC(=N)N)NC(=O)[C@@H]1CCCN1C(=O)[C@H](CCCNC(=N)N)NC(=O)[C@@H]1CCC(=O)N1)C(=O)N[C@H](C)C(=O)N[C@H](Cc1ccccc1)C(=O)O` [Example 5, pE-R-P-R-L-S-Aib-k-G-P-nle-a-f-OH] ([pGlu]RPRLS[Aib][dK]GP[dNle][dA][dF]-OH), for which, at hAPJ, the EC50 is 79.9 nM. For the same compound, the half-life in series [1] is over 16.7 h.

Take `CCCC[C@H](NC(=O)[C@@H]1CCCN1C(=O)CNC(=O)[C@H](CCCCN)NC(=O)[C@H](Cc1c[nH]cn1)NC(=O)[C@@H](C)NC(=O)[C@H](CC(C)C)NC(=O)[C@H](CCCNC(=N)N)NC(=O)[C@@H]1CCCN1C(=O)[C@H](CCCNC(=N)N)NC(=O)[C@@H]1CCC(=O)N1)C(=O)N1CCC[C@H]1C(=O)N[C@H](Cc1ccccc1)C(=O)O` [Example 34, pE-R-P-R-L-a-H-K-G-P-Nle-P-f-OH] ([pGlu]RPRL[dA]HKGP[Nle]P[dF]-OH): the 50% effective concentration (EC50) at hAPJ is 34.5 nM. The half-life in series [1] turned out to be 0.387 h.

The values are drawn from patent US8921307B2, “Synthetic linear apelin mimetics for the treatment of heart failure” (priority 2012, dated 2014).
